Tested on: 138582-337-R-J1-PDC complex spheroid viability
Test: Anticancer human tumor 138582-337-R-J1-PDC patient-derived Merkel cell tumor cell line growth inhibition
Settings: for IC50: curve of first compound; for viability, T/C: stronger effect = lower value
Outline: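 Complex spheroids of tumor cells with HUVEC and human MSCs, exposed to iadademstat combined with other agents. Each agent tested in half-log steps from near clinical Cmax (else 10 microM top), DMSO ≤0.25%.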

[1] = second compound 0.1 µM, first compound 0.0316 µM
[2] = second compound 0.1 µM, first compound 0.1 µM
[3] = second compound 0.1 µM, first compound 0.316 µM
[4] = second compound 0.1 µM, first compound 1 µM
[5] = second compound 0.1 µM, first compound 3.16 µM
[6] = second compound 0.1 µM, first compound 10 µM
[7] = second compound 0.316 µM, first compound 0.0316 µM
[8] = second compound 0.316 µM, first compound 0.1 µM
[9] = second compound 0.316 µM, first compound 0.316 µM
[10] = second compound 0.316 µM, first compound 1 µM
[11] = second compound 0.316 µM, first compound 3.16 µM
[12] = second compound 0.316 µM, first compound 10 µM
[13] = second compound 1 µM, first compound 0.0316 µM
[14] = second compound 1 µM, first compound 0.1 µM
[15] = second compound 1 µM, first compound 0.316 µM
[16] = second compound 1 µM, first compound 1 µM
[17] = second compound 1 µM, first compound 3.16 µM
[18] = second compound 1 µM, first compound 10 µM
[19] = second compound 3.16 µM, first compound 0.0316 µM
[20] = second compound 3.16 µM, first compound 0.1 µM
[21] = second compound 3.16 µM, first compound 0.316 µM
[22] = second compound 3.16 µM, first compound 1 µM
[23] = second compound 3.16 µM, first compound 3.16 µM
[24] = second compound 3.16 µM, first compound 10 µM
[25] = second compound 10 µM, first compound 0.0316 µM
[26] = second compound 10 µM, first compound 0.1 µM
[27] = second compound 10 µM, first compound 0.316 µM
[28] = second compound 10 µM, first compound 1 µM
[29] = second compound 10 µM, first compound 3.16 µM
[30] = second compound 10 µM, first compound 10 µM
[31] = second compound 0.1 µM, first compound 0.00949 µM
[32] = second compound 0.1 µM, first compound 0.03 µM
[33] = second compound 0.1 µM, first compound 0.0949 µM
[34] = second compound 0.1 µM, first compound 0.3 µM
[35] = second compound 0.316 µM, first compound 0.00949 µM
[36] = second compound 0.316 µM, first compound 0.03 µM
[37] = second compound 0.316 µM, first compound 0.0949 µM
[38] = second compound 0.316 µM, first compound 0.3 µM
[39] = second compound 1 µM, first compound 0.00949 µM
[40] = second compound 1 µM, first compound 0.03 µM
[41] = second compound 1 µM, first compound 0.0949 µM
[42] = second compound 1 µM, first compound 0.3 µM
[43] = second compound 3.16 µM, first compound 0.00949 µM
[44] = second compound 3.16 µM, first compound 0.03 µM
[45] = second compound 3.16 µM, first compound 0.0949 µM
[46] = second compound 3.16 µM, first compound 0.3 µM
[47] = second compound 10 µM, first compound 0.00949 µM
[48] = second compound 10 µM, first compound 0.03 µM
[49] = second compound 10 µM, first compound 0.0949 µM
[50] = second compound 10 µM, first compound 0.3 µM
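Throughout, for viability, T/C: 100% = DMSO vehicle control viability.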

In the case of CC1(C)CCC(CN2CCN(c3ccc(C(=O)NS(=O)(=O)c4ccc(NCC5CCOCC5)c([N+](=O)[O-])c4)c(Oc4cnc5[nH]ccc5c4)c3)CC2)=C(c2ccc(Cl)cc2)C1 + NC1CC1c1ccc(-c2cccc(O)c2)cc1, the IC50 (second compound 0.1 µM) is reported as 3.98 µM, the IC50 (second compound 0.316 µM) is reported as 3.76 µM and the IC50 (second compound 1 µM) is reported as 4.03 µM. The IC50 (second compound 3.16 µM) was 3.27 µM, the IC50 (second compound 10 µM) was 3.55 µM and the viability, T/C [1] was 63.8%. The viability, T/C [2] was 55.9%, the viability, T/C [3] was 56.7% and the viability, T/C [4] was 66.3%. The viability, T/C [5] was 66.6%, the viability, T/C [6] was 2.31% and the viability, T/C [7] was 70.8%. It also gave a viability, T/C [8] of 63%, a viability, T/C [9] of 59.4% and a viability, T/C [10] of 67.9%. The viability, T/C [11] was 58.1%, the viability, T/C [12] was 2.2% and the viability, T/C [13] was 69.7%. The viability, T/C [14] was 64.2%, the viability, T/C [15] was 78% and the viability, T/C [16] was 64%. The viability, T/C [17] was 63.5%, the viability, T/C [18] was 1.33% and the viability, T/C [19] was 62.9%. The viability, T/C [20] was 68.5%, the viability, T/C [21] was 57.9% and the viability, T/C [22] was 65.3%. It also gave a viability, T/C [23] of 51.6%, a viability, T/C [24] of 2.03% and a viability, T/C [25] of 62.3%. The viability, T/C [26] was 69.8%, the viability, T/C [27] was 72.9% and the viability, T/C [28] was 70.4%. The viability, T/C [29] was 55.6% and the viability, T/C [30] was 1.17%.
In the case of CC1COCCN1c1cc(C2(S(C)(=N)=O)CC2)nc(-c2ccnc3[nH]ccc23)n1 (stereo not given) + NC1CC1c1ccc(-c2cccc(O)c2)cc1, the IC50 (second compound 0.1 µM) is reported as 4.58 µM, the IC50 (second compound 0.316 µM) is reported as 3.02 µM and the IC50 (second compound 1 µM) is reported as 5.05 µM. It also gave an IC50 (second compound 3.16 µM) of 3.85 µM, an IC50 (second compound 10 µM) of 4.24 µM and a viability, T/C [1] of 74.1%. For the same compound, the viability, T/C [2] was 78%, the viability, T/C [3] was 70.3% and the viability, T/C [4] was 68.6%. For the same compound, the viability, T/C [5] was 54.2%, the viability, T/C [6] was 37.6% and the viability, T/C [7] was 64.6%. The viability, T/C [8] was 79%, the viability, T/C [9] was 75.8% and the viability, T/C [10] was 68%. For the same compound, the viability, T/C [11] was 49.4%, the viability, T/C [12] was 35.9% and the viability, T/C [13] was 72%. The viability, T/C [14] was 66.1%, the viability, T/C [15] was 62.6% and the viability, T/C [16] was 69.4%. The viability, T/C [17] was 54%, the viability, T/C [18] was 40.8% and the viability, T/C [19] was 81.2%. The viability, T/C [20] was 76.3%, the viability, T/C [21] was 78.8% and the viability, T/C [22] was 66.2%. The viability, T/C [23] was 54%, the viability, T/C [24] was 32.6% and the viability, T/C [25] was 89.9%. The viability, T/C [26] was 87.6%, the viability, T/C [27] was 95.5% and the viability, T/C [28] was 80.8%. For the same compound, the viability, T/C [29] was 53.3% and the viability, T/C [30] was 41.6%.
In the case of CCN(c1cc(-c2ccc(CN3CCOCC3)cc2)cc(C(=O)NCc2c(C)cc(C)[nH]c2=O)c1C)C1CCOCC1 + NC1CC1c1ccc(-c2cccc(O)c2)cc1, the IC50 (second compound 0.1 µM) is reported as > 3 µM, the IC50 (second compound 0.316 µM) is reported as > 3 µM and the IC50 (second compound 1 µM) is reported as > 3 µM. For the same compound, the IC50 (second compound 3.16 µM) was > 3 µM, the IC50 (second compound 10 µM) was > 3 µM and the viability, T/C [31] was 76.8%. It also gave a viability, T/C [32] of 69.5%, a viability, T/C [33] of 53.6% and a viability, T/C [34] of 59.3%. It also gave a viability, T/C (second compound 0.1 µM, first compound 0.949 µM) of 66.9%, a viability, T/C (second compound 0.1 µM, first compound 3 µM) of 64.6% and a viability, T/C [35] of 80.8%. It also gave a viability, T/C [36] of 81%, a viability, T/C [37] of 77.9% and a viability, T/C [38] of 66.6%. The viability, T/C (second compound 0.316 µM, first compound 0.949 µM) was 59%, the viability, T/C (second compound 0.316 µM, first compound 3 µM) was 67.1% and the viability, T/C [39] was 78.3%. For the same compound, the viability, T/C [40] was 72.7%, the viability, T/C [41] was 77.1% and the viability, T/C [42] was 66.8%. The viability, T/C (second compound 1 µM, first compound 0.949 µM) was 64.7%, the viability, T/C (second compound 1 µM, first compound 3 µM) was 60.5% and the viability, T/C [43] was 75.8%. The viability, T/C [44] was 84.9%, the viability, T/C [45] was 82% and the viability, T/C [46] was 75.2%. The viability, T/C (second compound 3.16 µM, first compound 0.949 µM) was 59.4%, the viability, T/C (second compound 3.16 µM, first compound 3 µM) was 66.9% and the viability, T/C [47] was 63.7%. The viability, T/C [48] was 91.8%, the viability, T/C [49] was 74% and the viability, T/C [50] was 80.3%. For the same compound, the viability, T/C (second compound 10 µM, first compound 0.949 µM) was 61.4% and the viability, T/C (second compound 10 µM, first compound 3 µM) was 72.4%.
With Nc1ncn(C2CC(O)C(CO)S2)c(=O)n1 (stereo not given) + NC1CC1c1ccc(-c2cccc(O)c2)cc1 the IC50 (second compound 0.1 µM) was > 0.3 µM, the IC50 (second compound 0.316 µM) was > 0.3 µM and the IC50 (second compound 1 µM) was > 0.3 µM. The IC50 (second compound 3.16 µM) was > 0.3 µM, the IC50 (second compound 10 µM) was > 0.3 µM and the viability, T/C (second compound 0.1 µM, first compound 0.000949 µM) was 79.6%. The viability, T/C (second compound 0.1 µM, first compound 0.003 µM) was 83.8%, the viability, T/C [31] was 69.2% and the viability, T/C [32] was 73%. The viability, T/C [33] was 77.1%, the viability, T/C [34] was 69.3% and the viability, T/C (second compound 0.316 µM, first compound 0.000949 µM) was 68.5%. It also gave a viability, T/C (second compound 0.316 µM, first compound 0.003 µM) of 80.1%, a viability, T/C [35] of 77.9% and a viability, T/C [36] of 76.6%. The viability, T/C [37] was 79.1%, the viability, T/C [38] was 78.3% and the viability, T/C (second compound 1 µM, first compound 0.000949 µM) was 71.8%. The viability, T/C (second compound 1 µM, first compound 0.003 µM) was 70.8%, the viability, T/C [39] was 70.8% and the viability, T/C [40] was 68%. It also gave a viability, T/C [41] of 76.6%, a viability, T/C [42] of 87.5% and a viability, T/C (second compound 3.16 µM, first compound 0.000949 µM) of 84.5%. For the same compound, the viability, T/C (second compound 3.16 µM, first compound 0.003 µM) was 78.9%, the viability, T/C [43] was 84.9% and the viability, T/C [44] was 71.8%. For the same compound, the viability, T/C [45] was 77.8%, the viability, T/C [46] was 68.9% and the viability, T/C (second compound 10 µM, first compound 0.000949 µM) was 74.3%. For the same compound, the viability, T/C (second compound 10 µM, first compound 0.003 µM) was 82%, the viability, T/C [47] was 88.5% and the viability, T/C [48] was 89.7%. It also gave a viability, T/C [49] of 93.4% and a viability, T/C [50] of 89.9%.
O=C(C=Cn1cnc(-c2cc(C(F)(F)F)cc(C(F)(F)F)c2)n1)NNc1cnccn1 + NC1CC1c1ccc(-c2cccc(O)c2)cc1 was tested, and the IC50 (second compound 0.1 µM) was 0.0115 µM, the IC50 (second compound 0.316 µM) was 0.0104 µM and the IC50 (second compound 1 µM) was 0.00594 µM. The IC50 (second compound 3.16 µM) was 0.00594 µM, the IC50 (second compound 10 µM) was 0.0158 µM and the viability, T/C (second compound 0.1 µM, first compound 0.00316 µM) was 60.7%. The viability, T/C (second compound 0.1 µM, first compound 0.01 µM) was 53%, the viability, T/C [1] was 27.8% and the viability, T/C [2] was 17.4%. For the same compound, the viability, T/C [3] was 16.3%, the viability, T/C [4] was 15.7% and the viability, T/C (second compound 0.316 µM, first compound 0.00316 µM) was 56.7%. It also gave a viability, T/C (second compound 0.316 µM, first compound 0.01 µM) of 50.4%, a viability, T/C [7] of 28.1% and a viability, T/C [8] of 16.2%. For the same compound, the viability, T/C [9] was 17.3%, the viability, T/C [10] was 21% and the viability, T/C (second compound 1 µM, first compound 0.00316 µM) was 55.2%. For the same compound, the viability, T/C (second compound 1 µM, first compound 0.01 µM) was 44.8%, the viability, T/C [13] was 33.8% and the viability, T/C [14] was 21.1%. For the same compound, the viability, T/C [15] was 18.6%, the viability, T/C [16] was 23.8% and the viability, T/C (second compound 3.16 µM, first compound 0.00316 µM) was 55.2%. The viability, T/C (second compound 3.16 µM, first compound 0.01 µM) was 46%, the viability, T/C [19] was 29.3% and the viability, T/C [20] was 22.1%. It also gave a viability, T/C [21] of 22.6%, a viability, T/C [22] of 17.3% and a viability, T/C (second compound 10 µM, first compound 0.00316 µM) of 55.4%. For the same compound, the viability, T/C (second compound 10 µM, first compound 0.01 µM) was 53.1%, the viability, T/C [25] was 44.6% and the viability, T/C [26] was 35.1%. For the same compound, the viability, T/C [27] was 24.9% and the viability, T/C [28] was 32.2%.
